Measured values taken from patent US20130252988A1, “COMPOSITIONS AND METHODS FOR TREATING MYELOFIBROSIS” (TARGEGEN, INC., priority 2010, published 2013).
Counter-ions that a name gives are not always drawn. Like-named read-outs stand apart in the source and are kept apart here.

System: subjects with myelofibrosis
Details: for Discontinuation because of adverse event, number of subjects / Discontinued, subjects n (%): Table 1
[1] = Example 1, patients who started at =680 mg
[2] = Example 1, started at =680 mg, 24 patients not requiring RBC transfusions at baseline
[3] = MTD cohort, at least possibly related
[4] = Table 3: treatment-emergent hematologic toxicity, MTD subjects (N = 40)
[5] = Table 4: treatment-emergent non-hematologic AE, MTD subjects (N = 40)
[6] = Table 5: treatment-emergent non-hematologic laboratory finding, MTD subjects (N = 40)

## Cc1cnc(Nc2ccc(OCCN3CCCC3)cc2)nc1Nc1cccc(S(=O)(=O)NC(C)(C)C)c1 [TG101348, N-tert-butyl-3-[(5-methyl-2-{[4-(2-pyrrolidin-1-ylethoxy)phenyl]amino}pyrimidin-4-yl)amino]benzenesulfonamide dihydrochloride monohydrate]
800 mg/day
  Patients who experienced DLT: 2 of 6
Eight of 43 subjects
  Subjects who discontinued treatment during the extension study: 19%
Example 1, 18 of 59 patients, median follow-up 12 weeks
  Patients who discontinued treatment: 31%
[1]
  Asymptomatic hyperlipasemia, patients: 33%
  Gr1/2 serum creatinine elevation, patients: 38%
  Gr3 diarrhea, number of patients: 3
  Gr3 nausea, number of patients: 1
  Gr3 neutropenia, patients: 15%
  Gr3 thrombocytopenia, patients: 20%
  Gr3 vomiting, number of patients: 1
  Gr4 neutropenia, patients: 0%
  Gr4 thrombocytopenia, patients: 10%
  Grade 1/2 transaminitis, patients: 38%
[2]
  Grade 3 anemia, patients: 42%
  Grade 4 anemia, patients: 8%
Example 1 background
  Grade 3/4 neutropenia, patients: 14%
  Grade 3/4 thrombocytopenia, patients: 25%
Example 2 conclusions
  Long-term toxicities: no long-term toxicities
Fifteen of 59 subjects
  Subjects who discontinued treatment during the first 6 cycles: 25%
MF-TG101348-001, subject 101-040, starting 680, termination 520 mg/day, 24 days, possibly related
  Reason for discontinuation of study: Adverse events - diarrhea (grade 3; possibly
MF-TG101348-001, subject 102-019, starting dose 520, dose at termination 520 mg/day, 42 days of treatment, probably related
  Reason for discontinuation of study: Adverse event - neutropenia (grade 3;
MF-TG101348-001, subject 104-027, starting 800, termination 680 mg/day, 77 days, possibly related
  Reason for discontinuation of study: Adverse event - thrombocytopenia (grade 4;
MF-TG101348-001, subject 104-029, starting 680, termination 680 mg/day, 44 days, not related, also embolic stroke (grade 3; not related)
  Reason for discontinuation of study: Adverse event - endocarditis (grade 3; not
MF-TG101348-001, subject 105-059, starting 680, termination 360 mg/day, 27 days, possibly related
  Reason for discontinuation of study: Adverse event - cardiac arrest (grade 5;
MF-TG101348-001, subject 106-028, starting 800, termination 520 mg/day, 44 days, possibly related
  Reason for discontinuation of study: Adverse event - thrombocytopenia (grade 4;
MF-TG101348-001 and -002
  Subjects with serious adverse events considered at least possibly related to TG101348: 8 subjects
MF-TG101348-002, subject 101-047, starting 680, termination 320 mg/day, cumulative 233 days, possibly related
  Reason for discontinuation of study: Adverse event - elevated creatinine (grade 2;
MF-TG101348-002, subject 104-015, starting 360, termination 520 mg/day, cumulative 257 days, possibly related
  Reason for discontinuation of study: Adverse event - depression (grade 3;
MF-TG101348-002, subject 104-017, starting 520, termination 200 mg/day, cumulative 309 days
  Reason for discontinuation of study: Investigator discretion - disease progression
MF-TG101348-002, subject 105-013, starting 240, termination 360 mg/day, cumulative 321 days, probably related
  Reason for discontinuation of study: Adverse event - thrombocytopenia (grade 4;
MTD cohort
  Grades 3/4 asymptomatic increase in ALT, subjects: 8%
  Grades 3/4 asymptomatic increase in AST, subjects: 3%
  Grades 3/4 asymptomatic increase in serum lipase, subjects: 15%
  Grades 3/4 increase in alkaline phosphatase, subjects: 0%
  Grades 3/4 increase in creatinine, subjects: 0%
MTD cohort (n=40), 28 subjects
  Subjects who required dose-reduction during the first 6 cycles: 70%
[3]
  Grade 3 diarrhea, subjects: 13%
  Grade 3 nausea, subjects: 5%
  Grade 3 vomiting, subjects: 3%
MTD cohort, first 6 cycles
  Dose-reduction, primary reason ALT elevation: 7.5%
  Dose-reduction, primary reason amylase/lipase elevation: 10%
  Dose-reduction, primary reason cytopenia(s): 20%
  Dose-reduction, primary reason gastrointestinal adverse events: 12.5%
  Dose-reduction, primary reason investigator discretion: 7.5%
  Dose-reduction, primary reason other adverse events: 12.5%
Phase I study, myelofibrosis
  Maximum tolerated dose (MTD): 680 mg
MTD (40 enrolled)
  Discontinuation because of adverse event, number of subjects: 5
MTD (initiated at 680 or 800 mg/day; 40 enrolled)
  Discontinued, subjects n (%): 11 (28%)
Overall (59 enrolled)
  Discontinuation because of adverse event, number of subjects: 6
  Discontinued, subjects n (%): 15 (25%)
Table 3: MTD subjects not transfusion dependent at baseline (N = 24), transfusion on at least 2 occasions for Hb <10 g/dL
  Anemia: New Transfusion Requirement on Study, subjects n (%): 16 (67%)
[4]
  Neutropenia Grade 3, subjects n (%): 6 (15%)
  Neutropenia Grade 4, subjects n (%): 0
  Thrombocytopenia Grade 3, subjects n (%): 8 (20%)
  Thrombocytopenia Grade 4, subjects n (%): 5 (13%)
[5]
  Abdominal pain Grade 1, subjects n (%): 5 (13%)
  Abdominal pain Grade 2, subjects n (%): 0
  Abdominal pain Grade 3, subjects n (%): 0
  Abdominal pain Grade 4, subjects n (%): 0
  Anorexia Grade 1, subjects n (%): 7 (18%)
  Anorexia Grade 2, subjects n (%): 0
  Anorexia Grade 3, subjects n (%): 1 (3%)
  Anorexia Grade 4, subjects n (%): 0
  Constipation Grade 1, subjects n (%): 6 (15%)
  Constipation Grade 2, subjects n (%): 1 (3%)
  Constipation Grade 3, subjects n (%): 0
  Constipation Grade 4, subjects n (%): 0
  Contusion Grade 1, subjects n (%): 5 (13%)
  Contusion Grade 2, subjects n (%): 0
  Contusion Grade 3, subjects n (%): 0
  Contusion Grade 4, subjects n (%): 0
  Diarrhea Grade 1, subjects n (%): 21 (53%)
  Diarrhea Grade 2, subjects n (%): 4 (10%)
  Diarrhea Grade 3, subjects n (%): 5 (13%)
  Diarrhea Grade 4, subjects n (%): 0
  Edema peripheral Grade 1, subjects n (%): 7 (18%)
  Edema peripheral Grade 2, subjects n (%): 1 (3%)
  Edema peripheral Grade 3, subjects n (%): 0
  Edema peripheral Grade 4, subjects n (%): 0
  Fatigue Grade 1, subjects n (%): 2 (5%)
  Fatigue Grade 2, subjects n (%): 3 (8%)
  Fatigue Grade 3, subjects n (%): 1 (3%)
  Fatigue Grade 4, subjects n (%): 0
  Headache Grade 1, subjects n (%): 4 (10%)
  Headache Grade 2, subjects n (%): 1 (3%)
  Headache Grade 3, subjects n (%): 0
  Headache Grade 4, subjects n (%): 0
  Nausea Grade 1, subjects n (%): 20 (50%)
  Nausea Grade 2, subjects n (%): 6 (15%)
  Nausea Grade 3, subjects n (%): 2 (5%)
  Nausea Grade 4, subjects n (%): 0
  Proteinuria Grade 1, subjects n (%): 2 (5%)
  Proteinuria Grade 2, subjects n (%): 3 (8%)
  Proteinuria Grade 3, subjects n (%): 0
  Proteinuria Grade 4, subjects n (%): 0
  Vomiting Grade 1, subjects n (%): 20 (50%)
  Vomiting Grade 2, subjects n (%): 7 (18%)
  Vomiting Grade 3, subjects n (%): 1 (3%)
  Vomiting Grade 4, subjects n (%): 0
[6]
  ALT increased Grade 2, subjects n (%): 8 (20%)
  ALT increased Grade 3, subjects n (%): 2 (5%)
  ALT increased Grade 4, subjects n (%): 0
  AST increased Grade 2, subjects n (%): 5 (13%)
  AST increased Grade 3, subjects n (%): 1 (3%)
  AST increased Grade 4, subjects n (%): 0
  Creatinine increased Grade 2, subjects n (%): 11 (28%)
  Creatinine increased Grade 3, subjects n (%): 0
  Creatinine increased Grade 4, subjects n (%): 0
  Hyperamylasemia Grade 2, subjects n (%): 0
  Hyperamylasemia Grade 3, subjects n (%): 1 (3%)
  Hyperamylasemia Grade 4, subjects n (%): 1 (3%)
  Hyperkalemia Grade 2, subjects n (%): 3 (8%)
  Hyperkalemia Grade 3, subjects n (%): 2 (5%)
